≈ marks a conversion by molar mass, not a printed value. Residues, ends and D or L forms follow the SMILES beside them. No end group written: not given here.
Key:
Type in all cases: cell-based
[1] = test system: Pseudomonas aeruginosa PAO1 strain H103; settings: for MIC: PAO1; for antimicrobial activity against P. aeruginosa PAO1 (in words): laboratory strain P. aeruginosa PAO1
Experimental: The biological activity of the peptides can be determined by standard methods known to those of skill in the art, such as “minimal inhibitory concentration (MIC)” assay described in the present examples, whereby the lowest concentration at which no change in OD is observed for a given period of time is recorded as MIC.
Minimal inhibitory concentration (MIC) determination. The MIC of the peptides were measured using a modified broth microdilution method in Mueller Hinton (MH) medium (Wu M, Hancock R E W. 1999. Interaction of the cyclic antimicrobial cationic peptide bactenecin with the outer and cytoplasmic membrane. J Biol Chem 274, 29-35). Briefly, the peptides were dissolved and stored in glass vials. The assay was performed in sterile 96-well polypropylene microtitre plates were used. Serial dilutions of the peptides to be assayed were performed in 0.01% acetic acid (Fisher) containing 0.2% bovine serum albumin (Boehringer Mannheim GmbH) at 10× the desired final concentration. Ten microlitres of the 10× peptides were added to each well of a 96-well polypropylene plate containing 90 μl of MH media per well. Bacteria were added to the plate from an overnight culture at 2-7×10^5 colony forming units/ml and incubated over night at 37° C. The MIC was taken as the concentration at which no growth was observed.
Strains. For the killing assay a mini-Tn5-lux mutant in Pseudomonas aeruginosa H103 was used. The strain is called H1001 and contains a fliC::luxCDABE transcriptional fusion resulting in constitutive expression of luciferase. The bacterial strains used for the antimicrobial activity assays included Escherichia coli UB1005 (F-, nalA37, metB1), a wild-type Salmonella enterica ssp. typhimurium (S. typhimurium), wild-type Pseudomonas aeruginosa PAO1 strain H103, Enterococcus faecalis ATCC29212, Staphylococcus aureus ATCC25923, and a clinical isolate of Staphylococcus epidermidis obtained from Dr. D. Speert (Department of Medicine, University of British Columbia). Antifungal activity was tested using a lab isolate of Candida albicans obtained from Dr. B. Dill (Department of Microbiology and Immunology, University of British Columbia).

[2] = test system: CXCL1 (Gro-α) release by human PBMC; experiment: Chemokine induction in PBMC (capture ELISA); settings: background (196) subtracted
Experimental: FIG. 17. Induction of CXCL1 (Gro-α) release by 7.5×10^5 human PBMC in response to treatment with 20 or 100 μg/ml of different peptides for 24 hours.
(§1) Venous blood (20 ml) from healthy volunteers was collected in Vacutainer® collection tubes containing sodium heparin as an anticoagulant (Becton Dickinson, Mississauga, ON) in accordance with UBC ethical approval and guidelines. Blood was diluted 1:1 with complete RPMI 1640 medium and separated by centrifugation over a Ficoll-Paque® Plus (Amersham Biosciences, Piscataway, N.J., USA) density gradient. White blood cells were isolated from the buffy coat, washed twice in RPMI 1640 complete medium, and the number of peripheral blood mononuclear cells (PBMC) was determined by trypan blue exclusion. PBMC (5×10^5) were seeded into 12-well tissue culture dishes (Falcon; Becton Dickinson) at 0.75 to 1×10^6 cells/ml at 37° C. in 5% CO2. The above conditions were chosen to mimic conditions for circulating blood monocytes entering tissues at the site of infection via extravasation.
(§2) Following incubation of the cells under various treatment regimens, the tissue culture supernatants were centrifuged at 1000×g for 5 min, then at 10,000×g for 2 min to obtain cell-free samples. Supernatants were aliquoted and then stored at −20° C. prior to assay for various chemokines by capture ELISA (eBioscience and BioSource International Inc., CA, USA respectively)

[3] = test system: MCP-3 release by human PBMC; experiment: Chemokine induction in PBMC (capture ELISA); settings: background (6) subtracted
Experimental: FIG. 16. Induction of MCP3 release by 7.5×10^5 human PBMC in response to treatment with 20 or 100 μg/ml of different peptides for 24 hours.
as §1, §2

[4] = test system: MCP-1 release by human PBMC; experiment: Chemokine induction in PBMC (capture ELISA); settings: background (204) subtracted
Experimental: FIG. 15. Induction of MCP-1 release by 7.5×10^5 human PBMC in response to treatment with 20 or 100 μg/ml of different peptides for 24 hours.
as §1, §2

Compound: CC(C)[C@H](NC(=O)CNC(=O)[C@@H](NC(=O)[C@H](CCCNC(=N)N)NC(=O)[C@H](CCCCN)NC(=O)[C@H](CO)NC(=O)[C@H](C)N)C(C)C)C(=O)N[C@@H](CCCNC(=N)N)C(=O)N[C@@H](CC(N)=O)C(N)=O [HHC190, ASKRVGVRN] (H-ASKRVGVRN-NH2; N-terminus assumed)
- MIC [1]: 413 µM (≈ 407 µg/mL)
- antimicrobial activity against P. aeruginosa PAO1 (in words) [1]: did not posses any antimicrobial activity

Compound: CC[C@H](C)[C@H](NC(=O)[C@H](CCC(N)=O)NC(=O)[C@H](CCCNC(=N)N)NC(=O)[C@H](CCCNC(=N)N)NC(=O)CNC(=O)[C@@H](N)CCCNC(=N)N)C(=O)NCC(=O)N[C@@H](CCCCN)C(=O)N[C@@H](Cc1ccccc1)C(N)=O [HHC189, RGRRQIGKF] (H-RGRRQIGKF-NH2; N-terminus assumed)
- MIC [1]: 379 µM (≈ 423 µg/mL)
- antimicrobial activity against P. aeruginosa PAO1 (in words) [1]: did not posses any antimicrobial activity

Compound: CSCC[C@H](NC(=O)CNC(=O)[C@H](Cc1c[nH]c2ccccc12)NC(=O)[C@H](CCCNC(=N)N)NC(=O)[C@H](CCCNC(=N)N)NC(=O)CN)C(=O)NCC(=O)N[C@H](C(=O)N[C@@H](CCCNC(=N)N)C(N)=O)C(C)C [HHC183, GRRWGMGVR] (H-GRRWGMGVR-NH2; N-terminus assumed)
- MIC [1]: 360 µM (≈ 386 µg/mL)
- antimicrobial activity against P. aeruginosa PAO1 (in words) [1]: did not posses any antimicrobial activity

Compound: CSCC[C@H](NC(=O)[C@H](CCCNC(=N)N)NC(=O)[C@H](Cc1c[nH]cn1)NC(=O)[C@H](CCCNC(=N)N)NC(=O)[C@H](CO)NC(=O)CNC(=O)[C@H](CCCNC(=N)N)NC(=O)[C@H](Cc1ccccc1)NC(=O)[C@H](C)N)C(N)=O [HHC152, AFRGSRHRM] (H-AFRGSRHRM-NH2; N-terminus assumed)
- MIC [1]: 506 µM (≈ 565 µg/mL)
- antimicrobial activity against P. aeruginosa PAO1 (in words) [1]: did not posses any antimicrobial activity

Compound: VQLRIWVRR (VQLRIWVRR-NH2) [compound 1006]
- Chemokine induction Gro-α ([2]; 20 μg/ml peptide): 65 pg/mL
- Chemokine induction Gro-α ([2]; 100 μg/ml peptide): 1245 pg/mL
- Chemokine induction MCP-3 ([3]; 20 μg/ml peptide): 0 pg/mL
- Chemokine induction MCP-3 ([3]; 100 μg/ml peptide): 58 pg/mL
- Chemokine induction MCP-1 ([4]; 20 μg/ml peptide): 392 pg/mL
- Chemokine induction MCP-1 ([4]; 100 μg/ml peptide): 3004 pg/mL

Compound: 1009 (AIRVVRARLVRR) [compound 1009]
- Chemokine induction Gro-α ([2]; 20 μg/ml peptide): 230 pg/mL
- Chemokine induction Gro-α ([2]; 100 μg/ml peptide): 377 pg/mL
- Chemokine induction MCP-3 ([3]; 20 μg/ml peptide): 6 pg/mL
- Chemokine induction MCP-3 ([3]; 100 μg/ml peptide): 6 pg/mL
- Chemokine induction MCP-1 ([4]; 20 μg/ml peptide): 634 pg/mL
- Chemokine induction MCP-1 ([4]; 100 μg/ml peptide): 1093 pg/mL

Compound: 1011 (RRWVVWRIVQRR) [compound 1011]
- Chemokine induction Gro-α ([2]; 20 μg/ml peptide): 46 pg/mL
- Chemokine induction Gro-α ([2]; 100 μg/ml peptide): 308 pg/mL
- Chemokine induction MCP-3 ([3]; 20 μg/ml peptide): 1 pg/mL
- Chemokine induction MCP-3 ([3]; 100 μg/ml peptide): 35 pg/mL
- Chemokine induction MCP-1 ([4]; 20 μg/ml peptide): 579 pg/mL
- Chemokine induction MCP-1 ([4]; 100 μg/ml peptide): 2282 pg/mL

Compound: 1036 (VQFRIRVIVIRK) [compound 1036]
- Chemokine induction Gro-α ([2]; 20 μg/ml peptide): 51 pg/mL
- Chemokine induction Gro-α ([2]; 100 μg/ml peptide): 137 pg/mL
- Chemokine induction MCP-3 ([3]; 20 μg/ml peptide): 1 pg/mL
- Chemokine induction MCP-3 ([3]; 100 μg/ml peptide): 39 pg/mL
- Chemokine induction MCP-1 ([4]; 20 μg/ml peptide): 601 pg/mL
- Chemokine induction MCP-1 ([4]; 100 μg/ml peptide): 968 pg/mL

Compound: CC(C)C[C@H](NC(=O)CNC(=O)[C@H](CCCCN)NC(=O)[C@H](CC(N)=O)NC(=O)[C@H](CCCNC(=N)N)NC(=O)[C@@H](N)CCC(N)=O)C(=O)N[C@@H](CCCNC(=N)N)C(=O)N[C@@H](Cc1c[nH]cn1)C(=O)N[C@@H](Cc1c[nH]cn1)C(N)=O [HHC186, QRNKGLRHH] (H-QRNKGLRHH-NH2; N-terminus assumed)
- MIC [1]: 381 µM (≈ 436 µg/mL)
- antimicrobial activity against P. aeruginosa PAO1 (in words) [1]: did not posses any antimicrobial activity

Compound: 1003 (IVWKIKRWWVGR) [compound 1003]
- Chemokine induction Gro-α ([2]; 20 μg/ml peptide): 65 pg/mL
- Chemokine induction Gro-α ([2]; 100 μg/ml peptide): 170 pg/mL
- Chemokine induction MCP-3 ([3]; 20 μg/ml peptide): 0 pg/mL
- Chemokine induction MCP-3 ([3]; 100 μg/ml peptide): 5 pg/mL
- Chemokine induction MCP-1 ([4]; 20 μg/ml peptide): 31 pg/mL
- Chemokine induction MCP-1 ([4]; 100 μg/ml peptide): 1361 pg/mL

— US8343475B2, “Small cationic antimicrobial peptides” (priority 2006, dated 2013)
